Data reported in ChEMBL document CHEMBL2396620, “Synthesis and biological evaluation of novel benzoxazinyl-oxazolidinones as potential antibacterial agents” (2013).
In brackets after ≈: the same amount, converted by molar mass.

How the values were obtained:
Assay type in all cases: functional
Enterococcus faecalis [1] = assay: Antibacterial activity against Enterococcus faecalis assessed as growth inhibition after 16 hrs by agar dilution method
Staphylococcus aureus [2] = assay: Antibacterial activity against methicillin-sensitive Staphylococcus aureus assessed as growth inhibition after 16 hrs by agar dilution method
Staphylococcus aureus [3] = assay: Antibacterial activity against methicillin-resistant Staphylococcus aureus assessed as growth inhibition after 16 hrs by agar dilution method
[4] = tested on: Staphylococcus epidermidis; assay: Antibacterial activity against methicillin-resistant Staphylococcus epidermidis assessed as growth inhibition after 16 hrs by agar dilution method
Streptococcus pneumoniae [5] = assay: Antibacterial activity against penicillin-resistant Streptococcus pneumoniae assessed as growth inhibition after 16 hrs by agar dilution method
[6] = tested on: Staphylococcus epidermidis; assay: Antibacterial activity against methicillin-sensitive Staphylococcus epidermidis assessed as growth inhibition after 16 hrs by agar dilution method
[7] = tested on: Staphylococcus epidermidis; assay: Ratio of linezolid MIC to compound MIC for methicillin-sensitive Staphylococcus epidermidis
Enterococcus faecalis [8] = assay: Ratio of linezolid MIC to compound MIC for Enterococcus faecalis
Staphylococcus aureus [9] = assay: Ratio of linezolid MIC to compound MIC for methicillin-sensitive Staphylococcus aureus
Streptococcus pneumoniae [10] = assay: Ratio of linezolid MIC to compound MIC for penicillin-resistant Streptococcus pneumoniae

| SMILES | MIC (Enterococcus faecalis [1]) [µg/mL] | MIC (Staphylococcus aureus [2]) [µg/mL] | MIC (Staphylococcus aureus [3]) [µg/mL] | MIC [4] [µg/mL] | MIC (Streptococcus pneumoniae [5]) [µg/mL] | MIC [6] [µg/mL] | Ratio [7] | Ratio (Enterococcus faecalis [8]) | Ratio (Staphylococcus aureus [9]) | Ratio (Streptococcus pneumoniae [10]) |
| --- | --- | --- | --- | --- | --- | --- | --- | --- | --- | --- |
| O=C1O[C@@H](Cn2ccnn2)[C@@H]2COc3cc(-c4ccc(Cn5ccnn5)nc4)ccc3N12 | 4 (≈ 9.29 µM) | 2 (≈ 4.65 µM) | 1 (≈ 2.32 µM) | 1 (≈ 2.32 µM) | 2 (≈ 4.65 µM) | 1 (≈ 2.32 µM) |  |  |  |  |
| N#Cc1ccc(-c2ccc3c(c2)OC[C@H]2[C@H](C(N)=O)OC(=O)N32)cn1 | > 32 | > 32 |  |  | > 32 | > 32 |  |  |  |  |
| Cc1nc(-c2ccc(-c3ccc4c(c3)OC[C@H]3[C@H](C(N)=O)OC(=O)N43)cn2)no1 | > 32 | > 32 |  |  | > 32 | > 32 |  |  |  |  |
| NC(=O)[C@@H]1OC(=O)N2c3ccc(-c4ccc(-n5ccoc5=O)nc4)cc3OC[C@@H]12 | > 32 | > 32 | > 32 | > 32 | > 32 | > 32 |  |  |  |  |
| NC(=O)[C@@H]1OC(=O)N2c3ccc(-c4ccc(Cn5cncn5)nc4)cc3OC[C@@H]12 | > 32 | > 32 | > 32 | > 32 | > 32 | > 32 |  |  |  |  |
| CN1C[C@@H](c2ccc(-c3ccc4c(c3)OC[C@H]3[C@H](Cn5ccnn5)OC(=O)N43)cn2)OC1=O | 2 (≈ 4.46 µM) | 0.5 (≈ 1.11 µM) | 1 (≈ 2.23 µM) | 1 (≈ 2.23 µM) | 0.25 (≈ 0.557 µM) | 0.5 (≈ 1.11 µM) |  |  |  |  |
| O=C1O[C@@H](Cn2ccnn2)[C@@H]2COc3cc(-c4ccc(CO)nc4)ccc3N12 | 4 (≈ 10.5 µM) | 2 (≈ 5.27 µM) | 1 (≈ 2.64 µM) | 1 (≈ 2.64 µM) | 2 (≈ 5.27 µM) | 1 (≈ 2.64 µM) |  |  |  |  |
| CC(O)c1ccc(-c2ccc3c(c2)OC[C@H]2[C@H](Cn4ccnn4)OC(=O)N32)cn1 (some centres not stated) | 2 (≈ 5.08 µM) | 1 (≈ 2.54 µM) | 1 (≈ 2.54 µM) | 1 (≈ 2.54 µM) | 0.5 (≈ 1.27 µM) | 1 (≈ 2.54 µM) |  |  |  |  |
| CC(=O)c1ccc(-c2ccc3c(c2)OC[C@H]2[C@H](Cn4ccnn4)OC(=O)N32)cn1 | 2 (≈ 5.11 µM) | 0.5 (≈ 1.28 µM) | 0.5 (≈ 1.28 µM) | 1 (≈ 2.56 µM) | 0.25 (≈ 0.639 µM) | 0.5 (≈ 1.28 µM) |  |  |  |  |
| CCO/N=C(\C)c1ccc(-c2ccc3c(c2)OC[C@H]2[C@H](Cn4ccnn4)OC(=O)N32)cn1 | > 32 | > 32 |  |  | > 32 | > 32 |  |  |  |  |
| C/C(=N\OC(C)C)c1ccc(-c2ccc3c(c2)OC[C@H]2[C@H](Cn4ccnn4)OC(=O)N32)cn1 | > 32 | > 32 |  |  | > 32 | > 32 |  |  |  |  |
| O=C1O[C@@H](Cn2ccnn2)[C@@H]2COc3cc(-c4ccc(Cn5cncn5)nc4)ccc3N12 | 1 (≈ 2.32 µM) | 0.5 (≈ 1.16 µM) | 0.5 (≈ 1.16 µM) | 0.5 (≈ 1.16 µM) | 2 (≈ 4.65 µM) | 0.5 (≈ 1.16 µM) | 2 | 2 | 2 |  |
| O=C1O[C@@H](Cn2ccnn2)[C@@H]2COc3cc(-c4ccc(Cn5ncnn5)nc4)ccc3N12 | 2 (≈ 4.64 µM) | 1 (≈ 2.32 µM) | 1 (≈ 2.32 µM) | 1 (≈ 2.32 µM) | 2 (≈ 4.64 µM) | 0.5 (≈ 1.16 µM) |  |  |  |  |
| O=C1O[C@@H](Cn2ccnn2)[C@@H]2COc3cc(-c4ccc(Cn5cnnn5)nc4)ccc3N12 | 4 (≈ 9.27 µM) | 2 (≈ 4.64 µM) | 2 (≈ 4.64 µM) | 1 (≈ 2.32 µM) | 4 (≈ 9.27 µM) | 1 (≈ 2.32 µM) |  |  |  |  |
| N#Cc1ccc(-c2ccc3c(c2)OC[C@H]2[C@H](Cn4ccnn4)OC(=O)N32)cn1 | 1 (≈ 2.67 µM) | 0.25 (≈ 0.668 µM) | 0.25 (≈ 0.668 µM) | 0.25 (≈ 0.668 µM) | 0.25 (≈ 0.668 µM) | 0.25 (≈ 0.668 µM) | 4 | 4 | 4 | 4 |
| Cn1nnnc1-c1ccc(-c2ccc3c(c2)OC[C@H]2[C@H](Cn4ccnn4)OC(=O)N32)cn1 | 4 (≈ 9.27 µM) | 2 (≈ 4.64 µM) | 1 (≈ 2.32 µM) | 1 (≈ 2.32 µM) | 2 (≈ 4.64 µM) | 1 (≈ 2.32 µM) |  |  |  |  |
| Cn1nnc(-c2ccc(-c3ccc4c(c3)OC[C@H]3[C@H](Cn5ccnn5)OC(=O)N43)cn2)n1 | 4 (≈ 9.27 µM) | 2 (≈ 4.64 µM) | 2 (≈ 4.64 µM) | 2 (≈ 4.64 µM) | 1 (≈ 2.32 µM) | 1 (≈ 2.32 µM) |  |  |  |  |
| Cc1nc(-c2ccc(-c3ccc4c(c3)OC[C@H]3[C@H](Cn5ccnn5)OC(=O)N43)cn2)no1 | 8 (≈ 18.5 µM) | 2 (≈ 4.64 µM) | 2 (≈ 4.64 µM) | 4 (≈ 9.27 µM) | 1 (≈ 2.32 µM) | 2 (≈ 4.64 µM) |  |  |  |  |
| O=C1O[C@@H](Cn2ccnn2)[C@@H]2COc3cc(-c4ccc(-n5cc(CO)oc5=O)nc4)ccc3N12 | 1 (≈ 2.16 µM) | 0.5 (≈ 1.08 µM) | 1 (≈ 2.16 µM) | 1 (≈ 2.16 µM) | 0.5 (≈ 1.08 µM) | 0.5 (≈ 1.08 µM) |  |  |  |  |
| CC(=O)NC[C@H]1CN(c2ccc(N3CCOCC3)c(F)c2)C(=O)O1 [LINEZOLID] |  | 1 (≈ 2.96 µM) | 1 (≈ 2.96 µM) | 1 (≈ 2.96 µM) |  | 1 (≈ 2.96 µM) |  |  |  |  |
